Laboratory results taken from patent US20210386721A1, “SUBSTITUTED PHENYLPROPENYL PYRIDINE DERIVATIVES, THEIR PREPARATION AND PHARMACEUTICAL APPLICATIONS” (SHANGHAI HAIYAN PHARMACEUTICAL TECHNOLOGY CO., LTD., priority 2019, published 2021).

Key:
PD-1/PD-L1 = target: T1, PD-1/PD-L1 (Homo sapiens, UniProt Q9NZQ7); assay: PD-1/PD-L1 binding assay (HTRF, PPI-HTRF); conditions: HTRF PD1/PD-L1 binding assay kit; 10 nM Tag1-PD-L1; 25° C.
T1 construct: purchased Cisbio 63ADK000CPDPEB
Procedure: Assay 1 PD-1/PD-L1 Binding Assay
DMSO is from Sigma, Cat No: D5879; 384-well small volume plate (white) is from Greiner, Cat No: 784075; Anti-PD1 blocking antibody (IC50: 10 nM) is from Cisbio, Cat No: 64CUS000C-1a; Anti-PDL1 blocking antibody (IC50: 0.3 nM) is from Cisbio, Cat No: 64CUS000C-1b; HTRF PD1/PD-L1 binding assay kit is from Cisbio, Cat No: 63ADK000CPDPEB.
1. Prepare the compound to be tested at 2x concentration into 1× reaction buffer containing 4% DMSO;
2. Tag1-PD-L1 protein and Tag2-PD1 protein were prepared in 1× reaction buffer at concentrations of […] and 10 nM, respectively. The final reaction concentration of the experiment was 10 nM Tag1-PD-L1 and 2 nM […];
3. anti-Tag1-Eu3+ antibody is prepared in 1x concentration detection buffer at a ratio of 1:100;
4. anti-Tag2-XL665 antibody is prepared in 1x concentration detection buffer at a ratio of 1:25; Experimental steps
1. 5 μL of compounds to be tested (2×) was added;
2. 2.5 ul Tag1-PD-L1 protein and 2.5 ul Tag2-PD1 protein were added respectively, and the total reaction system is 10 ul, and reacted at 25° C. for 15 minutes;
3. 5 ul anti-Tag1-Eu3+ antibody and 5 ul anti-Tag2-XL665 antibody were added respectively, and reacted at 25° C. for 16 hours;
4. The fluorescence microplate reader HTRF reading program was used to read two readings at 665 nm and 620 nm, the ratio of the two wavelengths was used to judge the activity of the compound, and the IC50 of the compound to be tested is calculated by XLFIT5.0 (IDBS).

[1] = tested on: Jurkat T(PD1 Luc-)/CHOK1(PDL-1); assay: Jurkat T(PD1 Luc-)/CHOK1(PDL-1) cell experiment (luciferase reporter); format: cell-based; conditions: CHO/PD-L1-OKT3 cells co-cultured with Jurkat/PD1-NFAT-Luc cells for 6 hours; Bio-Glo luciferase signal
Procedure: Assay 2 Jurkat T(PD1 Luc-)/CHOK1(PDL-1) Cell Experiment
G418, Sangon Biotech #A100859-0001, Cat Number G108BA0003, 5 ml of deionized water being added into each bottle, store at 4° C.
CHO/PD-L1-OKT3 cells (constructed by referring to Promega's PD-1/PD-L1 Blockade Bioassays system) cultured in F-12K medium (containing 10% FBS, 800 ug/ml G418, 400 ug/ml D Hygromycin B) were planted into a 96-well plate at 2×10^4 per well, and incubated for 24 hours at 37° C. and 5% CO2. part of the medium was removed, and the test compound dissolved in DMSO with a final concentration of 1 uM was added, and DMSO at the same concentration was added into the control cells. Jurkat/PD1-NFAT-Luc cells (constructed by referring to Promega's PD-1/PD-L1 Blockade Bioassays system) were added at 5×10^5 per well at the same time, and cultured for 6 hours. The corresponding luciferase signal was detected by Bio-Glo™ (Promega, G7940) reagent. The EC50 of each compound to be tested was calculated through the non-linear regression of XLfit software.

T1 sequence (Q9NZQ7 19-238 limits assumed): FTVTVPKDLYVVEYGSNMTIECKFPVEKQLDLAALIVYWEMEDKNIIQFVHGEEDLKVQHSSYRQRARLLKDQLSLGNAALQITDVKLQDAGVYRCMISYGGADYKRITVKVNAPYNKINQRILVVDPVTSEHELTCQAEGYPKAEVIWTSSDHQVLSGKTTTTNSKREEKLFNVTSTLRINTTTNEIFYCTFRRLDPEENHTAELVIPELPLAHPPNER

| SMILES | IC50 (PD-1/PD-L1) | EC50 [1] |
| --- | --- | --- |
| COc1cc(/C=C/c2ccnc(-c3cccc(Nc4nccc5cc(CN6CC[C@@H](O)C6)cnc45)c3C)c2C#N)c(C(F)(F)F)cc1CN1CC[C@@H](C(=O)O)C1 [Z-14] | < 1 nM | 208 nM |
| COc1cc(/C=C/c2cccc(-c3cccc(-c4nc5cc(CN6CC[C@@H](C(=O)O)C6)cc(C#N)c5o4)c3C)c2C)c(C(F)(F)F)cc1CNCCO [Z-33] | 1 nM | 74 nM |
| COc1cc(/C=C/c2cccc(-c3cccc(-c4nc5cc(CN6CC[C@@H](C(=O)O)C6)cc(C#N)c5o4)c3C)c2C)c(C(F)(F)F)cc1CN[C@@H](C)CO [Z-34, (R)-1-((7-cyano-2-(3′-((E)-4-((((S)-1-hydroxypropan-2-yl)amino)methyl)-5-methoxy-2-(trifluoromethyl)styryl)-2,2′-dimethyl-[1,1′-biphenyl]-3-yl)benzo[d]oxazol-5-yl)methyl)pyrrolidine-3-carboxylic Acid] | 2 nM | 79 nM |
| COc1cc(/C=C/c2cccc(-c3cccc(-c4nc5cc(CNCCO)cc(C#N)c5o4)c3C)c2C)c(C(F)(F)F)cc1CN1CCCC[C@H]1C(=O)O [Z-40] | 1 nM | 108 nM |
| COc1cc(/C=C/c2cccc(-c3cccc(-c4nc5cc(CN[C@@H](C)CO)cc(C#N)c5o4)c3C)c2C)c(C(F)(F)F)cc1CN1CCCC[C@H]1C(=O)O [Z-41, (S)-1-(4-((E)-2-(3′-(7-cyano-5-((((S)-1-hydroxypropan-2-yl)amino)methyl)benzo[d]oxazol-2-yl)-2,2′-dimethyl-[1,1′-biphenyl]-3-yl)vinyl)-2-methoxy-5-(trifluoromethyl)benzyl) piperidine-2-carboxylic Acid] | 2 nM | 109 nM |
| COc1cc(/C=C/c2ccnc(-c3cccc(-c4nc5cc(CN6CC[C@@H](O)C6)cc(C#N)c5o4)c3C)c2C#N)c(C(F)(F)F)cc1CN1CC[C@@H](C(=O)O)C1 [Z-49] | 1 nM | 78 nM |
| Cc1cc(/C=C/c2nccc(-c3cccc(-c4nc5cc(CN6CC[C@@H](O)C6)cc(C#N)c5o4)c3C)c2C#N)c(C(F)(F)F)cc1CN1CC[C@@H](C(=O)O)C1 [Z-51] | 1 nM | 56 nM |
| COc1cc(/C=C/c2cccc(-c3cccc(-c4nc5c(C#N)cc(CN6CC[C@@H](C(=O)O)C6)cn5n4)c3C)c2C)c(C(F)(F)F)cc1CN1CC[C@@H](O)C1 [Z-53, (R)-1-((8-cyano-2-(3′-((E)-4-(((R)-3-hydroxypyrrolidin-1-yl)methyl)-5-methoxy-2-(trifluoromethyl)styryl)-2,2′-dimethyl-[1,1′-biphenyl]-3-yl)-[1,2,4]triazolo[1,5-a]pyridin-6-yl)methyl) pyrrolidine-3-carboxylic Acid] | 1 nM | 28 nM |
| COc1cc(/C=C/c2cccc(-c3cccc(-c4ccc(CNC[C@@H]5CCC(=O)N5)c(OC)n4)c3C)c2C)c(C(F)(F)F)cc1CN1CC[C@@H](C(=O)O)C1 [Z-54, (R)-1-(2-methoxy-4-((E)-2-(3′-(6-methoxy-5-(((((S)-5-oxopyrrolidin-2-yl)methyl)amino)methyl)pyridin-2-yl)-2,2′-dimethyl-[1,1′-biphenyl]-3-yl)vinyl)-5-(trifluoromethyl)benzyl)pyrrolidine-3-carboxylic Acid] | 1 nM | 149 nM |
| COc1cc(/C=C/c2cccc(-c3cccc(-c4cnc(CN5CC[C@@H](O)C5)c(OC)n4)c3C)c2C)c(C(F)(F)F)cc1CN1CC[C@@H](C(=O)O)C1 [Z-57] | 1 nM | 66 nM |
| COc1cc(/C=C/c2cccc(-c3cccc(-c4nc5c(c(OC)n4)CN(C[C@@H]4CCC(=O)N4)CC5)c3C)c2C)c(C(F)(F)F)cc1CN1CC[C@@H](C(=O)O)C1 [Z-60, (R)-1-(2-methoxy-4-((E)-2-(3′-(4-methoxy-6-(((S)-5-oxopyrrolidin-2-yl)methyl)-5,6,7,8-tetrahydropyrido[4,3-d]pyrimidin-2-yl)-2,2′-dimethyl-[1,1′-biphenyl]-3-yl)vinyl)-5-(trifluoromethyl)benzyl) pyrrolidine-3-carboxylic Acid] | 2 nM | 79 nM |

Second part, led by results:

| IC50 (PD-1/PD-L1) | SMILES | EC50 [1] |
| --- | --- | --- |
| 1 nM | Cc1cc(/C=C/c2cccc(-c3cccc(-c4nc5cc(CN6CC[C@@H](C(=O)O)C6)cc(C#N)c5o4)c3C)c2C)c(C(F)(F)F)cc1CN1CC[C@@H](O)C1 [Z-18, (R)-1-((7-cyano-2-(3′-((E)-4-(((R)-3-hydroxypyrrolidin-1-yl)methyl)-5-methyl-2-(trifluoromethyl)styryl)-2,2′-dimethyl-[1,1′-biphenyl]-3-yl)benzo[d]oxazol-5-yl)methyl)pyrrolidine-3-carboxylic Acid] | 142 nM |
| 1 nM | COc1cc(/C=C/c2cccc(-c3cccc(-c4nc5cc(CN6CC[C@@H](C(=O)O)C6)cc(C#N)c5o4)c3C)c2C)c(C(F)(F)F)cc1CN1CC[C@@H](O)C1 [Z-21, (R)-1-((7-cyano-2-(3′-((E)-4-(((R)-3-hydroxypyrrolidin-1-yl)methyl)-5-methoxy-2-(trifluoromethyl)styryl)-2,2′-dimethyl-[1,1′-biphenyl]-3-yl)benzo[d]oxazol-5-yl)methyl) pyrrolidine-3-carboxylic Acid] | 5 nM |
| 4 nM | COc1cc(/C=C/c2cccc(-c3cccc(-c4nc5cc(CN6CC[C@@H](O)C6)cc(C#N)c5o4)c3C)c2C)c(C(F)(F)F)cc1CN1CCCC[C@H]1C(=O)O [Z-26] | 39 nM |
| 1 nM | COc1cc(/C=C/c2cccc(-c3cccc(-c4nc5cc(CN6CC[C@@H](C(=O)O)C6)cc(C(N)=O)c5o4)c3C)c2C)c(C(F)(F)F)cc1CN1CC[C@@H](O)C1 [Z-27, (R)-1-((7-carbamoyl-2-(3′-((E)-4-(((R)-3-hydroxypyrrolidin-1-yl)methyl)-5-methoxy-2-(trifluoromethyl)styryl)-2,2′-dimethyl-[1,1′-biphenyl]-3-yl)benzo[d]oxazol-5-yl)methyl)pyrrolidine-3-carboxylic Acid] | 176 nM |
| 2 nM | COc1cc(/C=C/c2cccc(-c3cccc(-c4nc5cc(CN6CC[C@@H](C(=O)O)C6)cc(C#N)c5o4)c3C)c2C)c(C(F)(F)F)cc1CN1CC[C@H](O)C1 [Z-29] | 109 nM |
| 2 nM | COc1cc(/C=C/c2cccc(-c3cccc(-c4nc5cc(CN6CC[C@H](C(=O)O)C6)cc(C#N)c5o4)c3C)c2C)c(C(F)(F)F)cc1CN1CC[C@H](O)C1 [Z-30] | 104 nM |
| 2 nM | COc1cc(/C=C/c2cccc(-c3cccc(-c4nc5cc(CN6CC[C@H](C(=O)O)C6)cc(C#N)c5o4)c3C)c2C)c(C(F)(F)F)cc1CN1CC[C@@H](O)C1 [Z-35] | 29 nM |
| 2 nM | COc1cc(/C=C/c2cccc(-c3cccc(-c4nc5cc(CN6CC[C@@H](O)C6)cc(C#N)c5o4)c3C)c2C)c(C(F)(F)F)cc1CN1CCC[C@H]1C(=O)O [Z-36, (4-((E)-2-(3′-(7-cyano-5-(((R)-3-hydroxypyrrolidin-1-yl)methyl)benzo[d]oxazol-2-yl)-2,2′-dimethyl-[1,1′-biphenyl]-3-yl)vinyl)-2-methoxy-5-(trifluoromethyl)benzyl)-L-proline] | 50 nM |
| 1 nM | COc1cc(/C=C/c2cccc(-c3cccc(-c4nc5cc(CN6CC[C@@H](C(=O)O)C6)cc(C#N)c5o4)c3C)c2Cl)c(C(F)(F)F)cc1CN1CC[C@@H](O)C1 [Z-38] | 83 nM |
| 1 nM | COc1cc(/C=C/c2cccc(-c3cccc(-c4nc5cc(CN6CC[C@@H](C(=O)O)C6)cc(C#N)c5o4)c3Cl)c2C)c(C(F)(F)F)cc1CN1CC[C@@H](O)C1 [Z-42] | 64 nM |
| 1 nM | COc1cc(/C=C/c2cccc(-c3cccc(-c4nc5cc(CN6CC[C@@H](O)C6)cc(C#N)c5o4)c3C)c2C#N)c(C(F)(F)F)cc1CN1CC[C@@H](C(=O)O)C1 [Z-43] | 72 nM |
| 1 nM | COc1cc(/C=C/c2ccnc(-c3cccc(-c4nc5cc(CN6CC[C@@H](O)C6)cc(C#N)c5o4)c3C)c2Cl)c(C(F)(F)F)cc1CN1CC[C@@H](C(=O)O)C1 [Z-52] | 153 nM |
